PubChem BioAssay (NCI)
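Assay format: 96-well plates, 48-hour exposure. TGI denotes the concentration required for complete inhibition of growth.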

How the values were obtained:
Experiment in all cases: inhibition of tumour cell growth, NCI panel, 48 h
SNB-78 CNS = tested on: SNB-78 CNS
RXF-631 renal = tested on: RXF-631 renal
UO-31 renal = tested on: UO-31 renal
SNB-19 CNS = tested on: SNB-19 CNS
CAKI-1 renal = tested on: CAKI-1 renal
OVCAR-4 ovarian = tested on: OVCAR-4 ovarian
DLD-1 colon = tested on: DLD-1 colon
K-562 leukemia = tested on: K-562 leukemia
SK-MEL-2 melanoma = tested on: SK-MEL-2 melanoma
HT29 colon = tested on: HT29 colon
OVCAR-8 ovarian = tested on: OVCAR-8 ovarian
M14 melanoma = tested on: M14 melanoma
ACHN renal = tested on: ACHN renal
UACC-62 melanoma = tested on: UACC-62 melanoma
SN12C renal = tested on: SN12C renal
TK-10 renal = tested on: TK-10 renal
KM12 colon = tested on: KM12 colon
LXFL 529 NSCLC = tested on: LXFL 529 NSCLC
COLO 205 colon = tested on: COLO 205 colon
HCT-15 colon = tested on: HCT-15 colon
NCI-H460 lung = tested on: NCI-H460 lung
IGROV1 ovarian = tested on: IGROV1 ovarian
HL-60(TB) leukemia = tested on: HL-60(TB) leukemia
A549 NSCLC = tested on: A549 NSCLC
NCI-H23 lung = tested on: NCI-H23 lung
DMS 114 small cell lung = tested on: DMS 114 small cell lung
RPMI-8226 leukemia = tested on: RPMI-8226 leukemia
M19-MEL melanoma = tested on: M19-MEL melanoma
SK-MEL-5 melanoma = tested on: SK-MEL-5 melanoma
U251 CNS = tested on: U251 CNS
SK-OV-3 ovarian = tested on: SK-OV-3 ovarian
DMS 273 small cell lung = tested on: DMS 273 small cell lung
MOLT-4 leukemia = tested on: MOLT-4 leukemia
HCC-2998 colon = tested on: HCC-2998 colon
CCRF-CEM leukemia = tested on: CCRF-CEM leukemia
HCT-116 colon = tested on: HCT-116 colon
OVCAR-3 ovarian = tested on: OVCAR-3 ovarian
786-0 renal = tested on: 786-0 renal
UACC-257 melanoma = tested on: UACC-257 melanoma
MALME-3M melanoma = tested on: MALME-3M melanoma
SF-539 CNS = tested on: SF-539 CNS
EKVX NSCLC = tested on: EKVX NSCLC
LOX IMVI melanoma = tested on: LOX IMVI melanoma
SNB-75 CNS = tested on: SNB-75 CNS
A498 renal = tested on: A498 renal
SK-MEL-28 melanoma = tested on: SK-MEL-28 melanoma
XF 498 CNS = tested on: XF 498 CNS
NCI-H522 lung = tested on: NCI-H522 lung
SF-295 CNS = tested on: SF-295 CNS
SW-620 colon = tested on: SW-620 colon
HOP-92 NSCLC = tested on: HOP-92 NSCLC
SF-268 CNS = tested on: SF-268 CNS
RXF 393 renal = tested on: RXF 393 renal
OVCAR-5 ovarian = tested on: OVCAR-5 ovarian
HOP-62 NSCLC = tested on: HOP-62 NSCLC
SR leukemia = tested on: SR leukemia
KM20L2 colon = tested on: KM20L2 colon
NCI-H226 lung = tested on: NCI-H226 lung
HOP-18 NSCLC = tested on: HOP-18 NSCLC

OC1CC1Sc1ccccc1 (stereo unspecified)
TGI (SNB-78 CNS): > 100 µM
TGI (RXF-631 renal): > 100 µM
TGI (UO-31 renal): 33.6 µM
TGI (SNB-19 CNS): > 100 µM
TGI (CAKI-1 renal): > 100 µM
TGI (OVCAR-4 ovarian): > 100 µM
TGI (DLD-1 colon): > 100 µM
TGI (K-562 leukemia): > 100 µM
TGI (SK-MEL-2 melanoma): > 100 µM
TGI (HT29 colon): > 100 µM
TGI (OVCAR-8 ovarian): 92.7 µM
TGI (M14 melanoma): > 100 µM
TGI (ACHN renal): > 100 µM
TGI (UACC-62 melanoma): > 100 µM
TGI (SN12C renal): 61.7 µM
TGI (TK-10 renal): > 100 µM
TGI (KM12 colon): > 100 µM
TGI (LXFL 529 NSCLC): 89.2 µM
TGI (COLO 205 colon): > 100 µM
TGI (HCT-15 colon): > 100 µM
TGI (NCI-H460 lung): > 100 µM
TGI (IGROV1 ovarian): 60.1 µM
TGI (HL-60(TB) leukemia): 39.6 µM
TGI (A549 NSCLC): > 100 µM
TGI (NCI-H23 lung): > 100 µM
TGI (DMS 114 small cell lung): 74.4 µM
TGI (RPMI-8226 leukemia): 83.4 µM
TGI (M19-MEL melanoma): > 100 µM
TGI (SK-MEL-5 melanoma): > 100 µM
TGI (U251 CNS): > 100 µM
TGI (SK-OV-3 ovarian): > 100 µM
TGI (DMS 273 small cell lung): > 100 µM
TGI (MOLT-4 leukemia): 91.7 µM
TGI (HCC-2998 colon): > 100 µM
TGI (CCRF-CEM leukemia): > 100 µM
TGI (HCT-116 colon): 62.9 µM
TGI (OVCAR-3 ovarian): 78.7 µM
TGI (786-0 renal): 42.8 µM
TGI (UACC-257 melanoma): > 100 µM
TGI (MALME-3M melanoma): > 100 µM
TGI (SF-539 CNS): 46.4 µM
TGI (EKVX NSCLC): > 100 µM
TGI (LOX IMVI melanoma): 71.1 µM
TGI (SNB-75 CNS): > 100 µM
TGI (A498 renal): > 100 µM
TGI (SK-MEL-28 melanoma): 57.3 µM
TGI (XF 498 CNS): > 100 µM
TGI (NCI-H522 lung): 39.8 µM
TGI (SF-295 CNS): 69.4 µM
TGI (SW-620 colon): 78.4 µM
TGI (HOP-92 NSCLC): > 100 µM
TGI (SF-268 CNS): 78.1 µM
TGI (RXF 393 renal): > 100 µM
TGI (OVCAR-5 ovarian): > 100 µM
TGI (HOP-62 NSCLC): > 100 µM

O=c1cccccc1NCCCCCCCCNc1cccccc1=O
TGI (SNB-78 CNS): > 100 µM
TGI (RXF-631 renal): > 100 µM
TGI (UO-31 renal): > 100 µM
TGI (SNB-19 CNS): > 100 µM
TGI (CAKI-1 renal): > 100 µM
TGI (DLD-1 colon): > 100 µM
TGI (K-562 leukemia): > 100 µM
TGI (SK-MEL-2 melanoma): > 100 µM
TGI (HT29 colon): > 100 µM
TGI (OVCAR-8 ovarian): > 100 µM
TGI (M14 melanoma): > 100 µM
TGI (ACHN renal): > 100 µM
TGI (UACC-62 melanoma): > 100 µM
TGI (SN12C renal): > 100 µM
TGI (KM12 colon): > 100 µM
TGI (SR leukemia): > 100 µM
TGI (LXFL 529 NSCLC): > 100 µM
TGI (COLO 205 colon): > 100 µM
TGI (HCT-15 colon): > 100 µM
TGI (NCI-H460 lung): > 100 µM
TGI (IGROV1 ovarian): > 100 µM
TGI (HL-60(TB) leukemia): > 100 µM
TGI (A549 NSCLC): > 100 µM
TGI (NCI-H23 lung): > 100 µM
TGI (DMS 114 small cell lung): > 100 µM
TGI (RPMI-8226 leukemia): > 100 µM
TGI (M19-MEL melanoma): > 100 µM
TGI (U251 CNS): > 100 µM
TGI (SK-OV-3 ovarian): > 100 µM
TGI (KM20L2 colon): > 100 µM
TGI (DMS 273 small cell lung): > 100 µM
TGI (MOLT-4 leukemia): > 100 µM
TGI (HCC-2998 colon): > 100 µM
TGI (CCRF-CEM leukemia): > 100 µM
TGI (HCT-116 colon): > 100 µM
TGI (NCI-H226 lung): > 100 µM
TGI (OVCAR-3 ovarian): > 100 µM
TGI (786-0 renal): > 100 µM
TGI (UACC-257 melanoma): > 100 µM
TGI (MALME-3M melanoma): > 100 µM
TGI (SF-539 CNS): > 100 µM
TGI (EKVX NSCLC): > 100 µM
TGI (LOX IMVI melanoma): > 100 µM
TGI (SNB-75 CNS): > 100 µM
TGI (XF 498 CNS): > 100 µM
TGI (NCI-H522 lung): > 100 µM
TGI (SF-295 CNS): > 100 µM
TGI (SW-620 colon): > 100 µM
TGI (HOP-92 NSCLC): 87.3 µM
TGI (SF-268 CNS): > 100 µM
TGI (RXF 393 renal): > 100 µM
TGI (OVCAR-5 ovarian): > 100 µM
TGI (HOP-62 NSCLC): > 100 µM

COC1CC(OC2C(C)OC(OC3C(C)OC(OC4CCC5(C)C(=CCC6(O)C5CC(OC(=O)c5ccc(O)cc5)C5(C)C(O)(C(C)=O)CCC65O)C4)CC3OC)CC2OC)OC(C)C1O (stereo unspecified) (tested in a mixture with another compound)
TGI (SNB-78 CNS): 57.2 µM
TGI (RXF-631 renal): > 100 µM
TGI (UO-31 renal): 75 µM
TGI (SNB-19 CNS): > 100 µM
TGI (DLD-1 colon): > 100 µM
TGI (SK-MEL-2 melanoma): 45.3 µM
TGI (HT29 colon): > 100 µM
TGI (OVCAR-8 ovarian): 82.5 µM
TGI (ACHN renal): > 100 µM
TGI (UACC-62 melanoma): 52.7 µM
TGI (SN12C renal): > 100 µM
TGI (TK-10 renal): > 100 µM
TGI (SR leukemia): 76.5 µM
TGI (LXFL 529 NSCLC): 78.4 µM
TGI (COLO 205 colon): 55.3 µM
TGI (HCT-15 colon): > 100 µM
TGI (NCI-H460 lung): > 100 µM
TGI (IGROV1 ovarian): > 100 µM
TGI (HL-60(TB) leukemia): 46.9 µM
TGI (A549 NSCLC): > 100 µM
TGI (NCI-H23 lung): 81.6 µM
TGI (RPMI-8226 leukemia): 95.8 µM
TGI (M19-MEL melanoma): > 100 µM
TGI (U251 CNS): 57.5 µM
TGI (SK-OV-3 ovarian): > 100 µM
TGI (DMS 273 small cell lung): > 100 µM
TGI (MOLT-4 leukemia): 82.2 µM
TGI (HCC-2998 colon): 60.5 µM
TGI (CCRF-CEM leukemia): 92.7 µM
TGI (NCI-H226 lung): > 100 µM
TGI (OVCAR-3 ovarian): 57.2 µM
TGI (786-0 renal): 57.1 µM
TGI (UACC-257 melanoma): 51.3 µM
TGI (MALME-3M melanoma): 74.6 µM
TGI (SF-539 CNS): 72.6 µM
TGI (EKVX NSCLC): > 100 µM
TGI (LOX IMVI melanoma): 34.8 µM
TGI (SNB-75 CNS): > 100 µM
TGI (SK-MEL-28 melanoma): > 100 µM
TGI (XF 498 CNS): 9.05 µM
TGI (SF-295 CNS): > 100 µM
TGI (SW-620 colon): > 100 µM
TGI (HOP-18 NSCLC): > 100 µM
TGI (HOP-92 NSCLC): 59.5 µM
TGI (SF-268 CNS): > 100 µM
TGI (RXF 393 renal): > 100 µM
TGI (OVCAR-5 ovarian): > 100 µM
TGI (HOP-62 NSCLC): > 100 µM
